{"source": "paper PMC5793121", "about": "(Toxins, 2018)", "key": {"in vivo": {"assay": "in vivo", "conditions": "male, ICR, mouse, in vivo", "protocol": "(§1) Az acute toxicity was estimated for its intravenous (iv) and intramuscular (im) administration to male ICR mice in a stepwise procedure.\n(§2) For the iv route of administration, 20 mice were randomly divided in 5 groups of 4 animals each. The animals of each group received a single dose of Az (0.3, 0.4, 0.5, 0.6, or 0.7 mg/kg, respectively) injected into the lateral tail vein at a volume of 1 mL/kg. For the im route of administration, first two experimental groups of 3 animals each were formed. Az at doses of 0.75 and 1.0 mg/kg, respectively, was injected into the quadriceps muscle of the thigh (quadriceps femoris muscle) of two mouse hind limbs at a volume of 0.5 mL/kg to each muscle. Then, five experimental groups of 5 animals each were formed. Az was injected into the quadriceps muscle of the thigh (quadriceps femoris muscle) of the two hind limbs of male ICR mice at doses of 0.8, 0.775, 0.75, 0.725 and 0.7 mg/kg. The injection volume to each limb was 1 mL/kg. Further, neurotoxic manifestations were recorded in animals at 5, 10, 20, 30, 60 and 90 min and 24 h after administration using the functional observation battery, the number of death was counted as well.\n(§3) For the iv and im route of administration, the median lethal dose (LD50) was calculated using a probit analysis. For the im route of administration, the maximum tolerated dose was determined.\n(§4) Rocuronium was administered intramuscularly at doses of 0.13 mg/kg (n = 1), 0.1 mg/kg (n = 4) and 0.08 mg/kg (n = 4) in the triceps of the forelimbs of male ICR mice (8–9 weeks old). Control animals were injected with saline (n = 4). The volume of administration was 0.5 mL/kg in each limb."}, "male ICR mice [1]": {"test_system": "male ICR mice", "assay": "in vivo", "protocol": "as §1, §2, §3, §4"}, "male ICR mice [2]": {"test_system": "male ICR mice", "assay_type": "in vivo, mouse", "conditions": "7-day im 0.15 and 0.5 mg/kg", "protocol": "For carrying out these experiments 90 male ICR mice were used, they were divided equally into three groups (30 animals per group) for each study and in these groups they were subdivided into subgroups of 10 mice each and treated as follows: mice of the first subgroup were injected with normal saline im, the second subgroup animals were treated with Az (0.15 mg/kg im) and the animals of the third subgroup were treated with Az (0.50 mg/kg im). The drugs were injected into the quadriceps muscle of the thigh (musculus quadriceps femoris) daily for seven days (1 mL/kg).\nOn the last 7th day of the Az administration, the mice of the first group (30 animals) were immunized with a solution of trinitrobenzenesulfonic acid (TNBS) (200 μL, 10 mM) subcutaneously at the base of a tail. After 6 days the animals were secondarily immunized with TNBS (50 μL, 10 mM) injected in the pad of the left hind paw, the same volume of normal saline was injected into the right hind paw. 24 h after the second immunization, the animals were euthanized (CO2 inhalation) and the weights of their experimental and control paws were determined. The reaction index was calculated using the indicated formula: Ri=Wexp−Wcont/Wexp×100% Ri—reaction index, Wexp—weight of the experimental paw, Wcont—weight of the control paw."}, "[3]": {"test_system": "GABAA (α1β3γ2 or α2β3γ2) receptors", "conditions": "concentration up to 100 μM; cited from earlier work"}, "Sprague Dawley rats": {"test_system": "Sprague Dawley rats", "assay_type": "in vivo, rat", "parameters": "number of platelets / increase of platelet count from control: unit not given here", "protocol": "A repeated dose 14-day intramuscular toxicity study was conducted on 36 SD male and 36 SD female adult rats. They were divided into 3 groups. The first control group was given normal saline, the second and the third experimental groups received Az at doses of 0.1 mg/kg and 0.5 mg/kg, respectively, daily for 14 days. The substances were injected into the quadriceps muscle of the thigh. Every day the animals were examined and any clinical signs of intoxication, body weight and food intake were recorded. The one half of the animals were euthanized on the 15th day of the study, the second half—after a 2-week cancellation period on the 29th day of the study. All animals were autopsied and their organs were inspected for any pathological signs, weighed and histologically examined. The ratio of organ-to-body weight was calculated for several organs: brain, heart, liver, spleen, thymus, kidneys, lungs, testicles and ovaries. The histological analysis was carried out for a number of organs: kidney, adrenal glands, testis, ovary, spleen, thymus, brain, heart, lung, liver, lymph node (mesenteric and mandibular), stomach, skin and muscle from the site of the administration.\nA biochemical analysis of blood serum parameters was performed. A level of aspartate aminotransferase, alanine aminotransferase, glutamate dehydrogenase, alkaline phosphatase, gamma-glutamyl transferase, urea nitrogen, creatinine, total bilirubin, total protein, albumin, globulin, phosphorus, calcium, total cholesterol, triglycerides, albumin/globulin ratio was estimated. The analysis was performed using Randox GB reagent kits for each tested parameter and the automatic biochemical analyzer Sapphire-400 (Tokyo Boeki Ltd., Toyko, Japan).\nA hematological analysis of animal blood included the evaluation of red and white blood cell number, a hemoglobin level, hematocrit, red cell distribution width, mean corpuscular volume (MCV), mean corpuscular hemoglobin (MCH), mean corpuscular hemoglobin concentration (MCHC), platelets number, a mean platelet volume, a mean platelet component and a cell number of neutrophils, eosinophils, basophils, lymphocytes, monocytes, large unstained cells, reticulocytes. The analysis was performed using a hematological analyzer Mythic 18 Vet (C2 D[…].A., Montpellier, France)."}, "[4]": {"test_system": "hprt gene of CHO-k1 cells"}, "[5]": {"test_system": "human muscle-type nAChR fetal form α1β1γδ", "conditions": "Xenopus oocytes; cited from earlier work"}}, "note": "No end group written: not given here."}
{"substance": "DNWWPKPPHQGPRPPRPRPKP-NH2 [Az, azemiopsin]", "values": [{"measurement": "LD50 at 24 h", "setting": "in vivo; im", "result": "0.732 ± 0.13", "unit": "mg/kg"}, {"measurement": "MTD at 24 h", "setting": "in vivo; im", "result": 0.7, "unit": "mg/kg"}, {"measurement": "LD50 at 24 h", "setting": "in vivo; iv", "result": 0.51, "unit": "mg/kg"}, {"measurement": "time of death after administration", "setting": "male ICR mice [1]; im 0.725 mg/kg", "result": "19.7 ± 5.9", "unit": "min"}, {"measurement": "time of death after administration", "setting": "male ICR mice [1]; im 0.75 mg/kg", "result": "28.8 ± 16.0", "unit": "min"}, {"measurement": "time of death after administration", "setting": "male ICR mice [1]; im 0.775 mg/kg", "result": "15.8 ± 4.3", "unit": "min"}, {"measurement": "time of death after administration", "setting": "male ICR mice [1]; im 0.8 mg/kg", "result": "12.2 ± 1.8", "unit": "min"}, {"measurement": "toxicity signs", "setting": "male ICR mice [1]; im dose of 0.3 mg/kg and lower (grip strength tests)", "result": "No toxicity signs"}, {"measurement": "time of appearance of visible toxic signs after administration", "setting": "male ICR mice [1]; im, large doses", "result": "5 to 7", "unit": "min"}, {"measurement": "time of complete recovery from the toxic effect after administration", "setting": "male ICR mice [1]; im, large doses", "result": 24, "unit": "h"}, {"measurement": "LD50", "setting": "male ICR mice [1]; intravenous administration, male ICR mice, probit analysis", "result": "0.51 ± 0.06", "unit": "mg/kg"}, {"measurement": "degree of paw edema in delayed-type hypersensitivity to TNBS (cellular immunity)", "setting": "male ICR mice [2]", "result": "did not cause any significant changes"}, {"measurement": "activity against GABAA receptors", "setting": "[3]", "result": "no activity"}, {"measurement": "changes in the hemogram relative to control", "setting": "Sprague Dawley rats; 0.1 mg/kg im 14 days", "result": "did not lead to any changes"}, {"measurement": "increase in mean body weight and food intake vs control", "setting": "Sprague Dawley rats; 0.1 and 0.5 mg/kg im 14 days", "result": "did not differ significantly"}, {"measurement": "histological analysis of organs and tissues", "setting": "Sprague Dawley rats; 0.1 and 0.5 mg/kg im 14 days, rats", "result": "No pathological changes"}, {"measurement": "lowering of cholesterol level from control", "setting": "Sprague Dawley rats; female rats, 0.1 mg/kg", "result": 0.73, "unit": "mmol/L"}, {"measurement": "level of calcium in blood serum", "setting": "Sprague Dawley rats; female rats, 0.1 mg/kg, end of 28-day experiment, n = 6, control 3.25 ± 0.09", "result": "3090 ± 60", "unit": "µM"}, {"measurement": "level of cholesterol in blood serum", "setting": "Sprague Dawley rats; female rats, 0.1 mg/kg, end of 28-day experiment, n = 6, control 3.55 ± 0.39", "result": "2820 ± 360", "unit": "µM"}, {"measurement": "decrease of triglyceride level from control", "setting": "Sprague Dawley rats; male rats receiving Az", "result": 0.28, "unit": "mmol/L"}, {"measurement": "difference of relative heart mass from control", "setting": "Sprague Dawley rats; male rats receiving Az", "result": 0.076, "unit": "%"}, {"measurement": "increase of platelet count from control", "setting": "Sprague Dawley rats; male rats receiving Az", "result": 81}, {"measurement": "number of platelets", "setting": "Sprague Dawley rats; male rats, 0.5 mg/kg im 14 days, n = 6, control 729 ± 22", "result": "810 ± 39"}, {"measurement": "mean level of triglycerides in blood serum", "setting": "Sprague Dawley rats; male rats, 0.5 mg/kg, end of 28-day experiment, n = 6, control 1.25", "result": 970, "unit": "µM"}, {"measurement": "mean relative heart weight", "setting": "Sprague Dawley rats; male rats, 0.5 mg/kg, two weeks after administration, n = 6, control 0.428 ± 0.086", "result": "0.352 ± 0.033", "unit": "%"}, {"measurement": "frequency of mutations in the hprt gene", "setting": "[4]; Az 2.8 to 2000 μg/mL, 4 h, with or without S9, spontaneous 25.2 ± 1.6", "result": "23.5–30.2 × 10^−6"}, {"measurement": "mutagenic capacity", "setting": "[4]; Az up to 2000 μg/mL, CHO-k1 cells", "result": "did not demonstrate any mutagenic capacity"}, {"measurement": "IC50", "setting": "[5]", "result": "1560 ± 370", "unit": "nM"}]}
